Assay results published in patent publication US20240335541A1, “NANOMATERIALS COMPRISING DIAMINES” (Beam Therapeutics Inc., priority 2021, published 2024).

Legend:
Assay in all cases: Barcoded pooled LNP biodistribution screen, fold above input (FAI)
Type in all cases: in vivo
Liver = conditions: Table 4 screening experiment; pooled LNP IV tail vein, mice, 4 hours post-dose
Procedure: (§1) Male and female mice aged approximately 8-12 weeks were used for studies described by the present Example. Each mouse was temporarily restrained and pooled LNP was administered IV via tail vein injection in up to five animals per experiment. Age-matched mice was also used to administer vehicle (1×TBS) via tail vein injection in up to three animals per experiment. Additional routes of administration can also be conducted including intracerebral ventricular (ICV), intracisterna manga (ICM), intrathecal (IT), intramuscular (IM), nebulization, intranasal (IN), subcutaneous (SC), intraarticular, and intradermal (ID). At 4 hours post-dose, tissues including liver, spleen, bone marrow, testes, gastrocnemius, quadricep, lung, heart, kidney, and pancreas may be collected for analysis.
(§2) Liver, kidney, lung, and muscle (e.g. skeletal and cardiac) tissues may be mechanically, and then enzymatically digested using a mixture of proteinases, then passed through a 70 μm filter to generate single cell suspensions. Spleen tissues were mechanically digested to generate single cell suspensions. Tissues were treated with ACK buffer to lyse red blood cells, and then stained with fluorescently-labeled antibodies for flow cytometry and fluorescence-activated cell sorting (FACS). Commercially available antibodies were used in the present example. Using a BD FACSMelody (Becton Dickinson), samples were acquired via flow cytometry to generate gates prior to sorting. In general, the gating structure was size→singlet cells→live cells→cells of interest. T cells were defined as CD45+CD3+, monocytes are defined as CD45+CD11b+, and B cells are defined as CD45+CD19+. Endothelial cells were defined as CD31+, monocytes and Kupffer cells as CD45+CD11b+ and hepatocytes and myocytes were defined as CD31−/CD45− in the liver and muscle, respectively. Tissues from vehicle-dosed mice were used to set the gates for sorting.
(§3) RNA from tissues were extracted using the Reliaprep RNA extraction kit, and libraries were prepared using the RNAseq kit, and sequenced on either a MiSeq or NextSeq500.
(§4) To screen for preferential LNP delivery to a target tissues, the relative abundance of each barcode in one or more target tissues was measured and compared to the relative abundance of each barcode to its corresponding relative input abundance to determine fold above input (FAI) for each barcode. If the FAI of a barcode in a target tissue is above a threshold or above the FAI of a different LNP in the same tissue, the LNP can be identified as preferentially delivering to the target tissue.
(§5) The FAI is the normalized relative abundance of a barcode in a selected sample as compared to its frequency in the input. The FAI of a barcode indicates how a LNP's abundance changes relative to the rest of the LNP pool. The FAI value of the barcode was calculated by normalizing the relative abundance in the barcode sequence counts in the isolated samples to its relative abundance in the administration input. […] The FAI then indicates the performance of an LNP relative to the input LNP composition.

Lung = conditions: pooled LNP IV tail vein, mice, 4 hours post-dose
Procedure: as §1, §2, §3, §4, §5

Spleen = conditions: pooled LNP IV tail vein, mice, 4 hours post-dose
Procedure: as §1, §2, §3, §4, §5

With `CCCCC/C=C\C/C=C\CCCCCCCCC(CCCCCCCC/C=C\C/C=C\CCCCC)OC(=O)CCCN(C)C` [MC3, (6Z,9Z,28Z,31Z)-heptatriaconta-6,9,28,31-tetraen-19-yl 4-(dimethylamino) butanoate] the “FAI (Liver)” value (Liver) was 0.86, the “FAI (Lung)” value (Lung; Table 4 screening experiment) was 1.13 and the “FAI (Lung)” value (Lung; Table 5 screening experiment) was 0.50. For the same compound, the “FAI (Spleen)” value (Spleen; Table 4 screening experiment) was 1.94 and the “FAI (Spleen)” value (Spleen; Table 5 screening experiment) was 0.39.
